Data on 6 substances can be found in patent US6699834B1, “Method for treating cancer” (University of Maryland Biotechnology Institute, priority 1997, dated 2004).

One assay concerns KS Y-1 and KS-SLK cells. Nature of the assay: Kaposi's Sarcoma clonogenic assay in cultured cells. Type of assay: cell-based, human. As to conditions: for KS in vitro: inhibition of Kaposi's Sarcoma cell growth in vitro in cultured cells. On the procedure: Briefly, the KS Y-1 cells were obtained from mononuclear cells isolated from pleural effusion of an AIDS patient with KS in the lungs. After the depletion of T lymphocytes, monocytes/macrophages and fibroblasts using monoclonal antibodies against CD2, CD3, CD4, CD8, CD10 and CD14 membrane antigens and baby rabbit complement, the cells were cultured in the absence of exogenous growth factors to select for transformed cells. […] Clonogenic assays were performed by seeding the KS Y-1 or KS-SLK cells in methylcellulose (0.8%, v/v), incubating the cells for 10 days in the presence or absence of the hCC, β-hCG or β-hCG peptide preparations and then counting the number of well-formed colonies of triplicate wells formed after seeding with 5×10^4 cells.
To assay for activity against Kaposi's sarcoma cell growth in vitro, the clonogenic assay described herein was used with the KS Y-1 and KS-SLK cultured Kaposi's Sarcoma cell lines,.

Assay [1] concerns Kaposi's Sarcoma induced in mice. Nature of the assay: Kaposi's Sarcoma tumors induced in mice by KS Y-1 cells. Type of assay: in vivo. As to conditions: for KS in vivo: inhibition of Kaposi's Sarcoma induced in mice; for effect on KS tumors in mice (in words): mouse, in vivo. On the procedure:
The effects of the peptides on KS tumor cells were also evaluated in vivo in the KS mouse model. To induce KS tumors in the mice, 1×10^6/ml KS Y-1 cells in 50 μl PBS or saline were injected subcutaneously into immunodeficient mice (beige-XID-BNX mice). […] Methods for detection of apoptosis (from tissue biopsies) were used, as described in Lunardi-Iskandar et al.(1995, Nature 375:64-68). Briefly, the samples were stained in situ for the presence of cells with DNA fragmentation. Tissue slides from formalin-fixed tumors were treated with terminal deoxynucleotide transferase for extension of DNA ends (hydroxyl 3′) and incorporation of digoxigenin-11-dUTP according to the manufacturer's instructions (Oncor, Gaithersburg, Md.). Anti-digoxigenin antibody conjugated with the enzyme peroxidase allowed detection of apoptotic cells, which stain brown, whereas viable cells stain blue.
Certain fractions were tested for activity in reducing Kaposi's Sarcoma lesions in the Kaposi's Sarcoma mouse model as described herein. In this assay, starting one week after injection of the KS Y-1 cells to induce Kaposi's sarcoma formation, the mice were injected subcutaneously with 100 IU hCG. […] After one week of the week of treatment with the hCG fractions, the KS lesions were examined for cell apoptosis and regression as described herein.
Certain fractions of the APL™ hCG and early pregnancy urine were assayed for their ability to elicit apoptosis in Kaposi's Sarcoma lesions induced by injection of KS Y-1 cells in mice (n=3 mice for each treatment). The mice were administered 100 μl subcutaneously of the particular fraction each day for one week.

In assay [2] the test system is HIV RNA and protein expression. Put plainly: HIV RNA and protein expression in HIV-1 transgenic mice. The assay is classed as in vivo. As to conditions: for inhibition of HIV RNA and protein expression: inhibition of HIV RNA and protein expression in HIV-1 transgenic mice; for HIV-1 gene / protein expression in transgenic mice (in words): pups dosed via mother's milk. The source says: The HIV-1 transgenic mice used for this study contain 7.4 kb of foreign DNA, including 5.1 kb of the HIV-1 proviral genome deleted in the gag and pol genes and 2.3 kb of vector (Dickie et al., 1991, Virology 185:109-119). […] In addition, these mice develop severe hyperkeratotic skin lesions with marked expression of gp 120 and nef genes (Kopp et al., 1993, AIDS Res. Hum. Retroviruses 9:267-275; Vasli et al., 1994, AIDS Res. Hum. Retroviruses 10:1241-1250).
Heterozygous transgenic mothers were treated with the hCG preparation subcutaneously twice weekly. Pups received hCG via the mother's milk.
Gene expression was assayed in total RNA extracted from the skin of Tg26 mice with RNAzol. One microgram of RNA was reverse transcribed into cDNA using random hexamer primers and […] reverse transcriptase (Life Technologies, MD) in a final volume of 30 μl. One tenth of the cDNA reactions were used for PCR amplification of various HIV gene sequences (env, tat, rev, nef and vif). In addition, glyceraldehyde 3-phosphate dehydrogenase (GAPHD) mRNA was amplified for each sample for normalization. Following 25 cycles of amplification, 10% of the PCR product was resolved by electrophoresis through 2% agarose gels and processed for Southern hybridization using FITC-labeled oligonucleotide probes complimentary to internal sequences of the amplicons. Detection was performed by chemiluminescence (Amersham) and relative mRNA levels determined by densitometry after normalization with GAPDH mRNA levels.
Finally, certain fractions were tested for their ability to increase survival, promote weight gain and reduce HIV-1 gene expression in HIV-1 transgenic mice as described herein.

The next assay concerns lung cancer cells. Nature of the assay: Clonogenic assay, lung cancer cells. Type of assay: cell-based. As to conditions: compared to PBS alone. As for the experimental part:
The hCG preparations, fractions of the early pregnancy urine and hCG APL™ SUPERDEX™ 200 fractionations (described herein), and certain β-hCG peptides were tested on prostate, lung, breast, and kidney cancer cells in vitro, and on prostate tumors in nude mice. […] The preparations fractions and peptides were also assayed using a clonogenic assay in which cells were seeded in methylcellulose in the presence or absence of test substance and then colonies were counted after a certain period of time. Cells were also examined for apoptosis by confocal microscopy.

The next assay has as its system HIV-1. As to conditions: for HIV in vitro Inhibition: inhibition of HIV-1 replication in vitro (HIV-1 strains and HIV-1 primary isolates). The source says:
To prepare HIV infected cells for the in vitro assay of hCG preparations and β-hCG peptides and derivatives, primary PBMCs, macrophages, and CD4^+ T cells isolated from peripheral blood and the H9 human T cell line, were acutely or chronically infected with 8 different HIV-1 strains: 4 cell line adapted viruses, namely the macrophage tropic Ba-L strain (Gartner et al., 1986, Science 233:215-219) and the CD4^+ T cell tropic MN, RF, and IIIB strains (10^5 TCID50/ml) (Popovic et al., 1984, Science […]; Gallo et al.; 1984, Science 224:500-503); 2 isolates, Ju1083 and G3, from Nigerian AIDS patients passed once in a CD4^+ T cell line (Sub-T1); and 2 primary (“clinical”) isolates from AIDS patients from Trinidad which were never passed in any cell line and were used at a titer of 7.5×10^4TCID50/ml. In all experiments; HIV1 (10^5 TCID50/ml) was added to the cells(10^6 cells/ml) for a 2 hour incubation after which the virus infected cells were washed with 10 ml phosphate buffered saline (PBS) three times to eliminate extra cellular virus. The test inhibitor, i.e. the hCG or β-hCG peptide preparation was then added and the cells were incubated with the test inhibiter for 9 to 10 days with serial sampling. Cultures were assayed for p24 antigen on days 3 to 10.
Peptides of the α- and β-subunits (0.05 to 50 nmoles/ml), native α chain preparation, and various crude preparations of the native hCG heterodimer (0.01 to 1,000 IU) and the native β-hCG subunit (100 to 1,000 μg) were tested for effects on HIV-1 replication in acutely infected cells-by measuring change in viral antigen levels in response to the above noted preparations (FIGS. 4A-D and Table 3).
The fractions were then tested for anti-HIV, anti-KS and pro-hematopoietic activities in vitro. To assay for inhibition of HIV-1 replication in vitro, the HIV-1 […] viral strain was used to infect PBMCs and PM-1 cells (derived from the HUT-78 T-cell lymphoma cell line) at 10^3 TCID50/ml as described in detail herein.

Assay [3] concerns hematopoietic progenitor cells. Put plainly: Hematopoietic progenitor clonogenic assays (CFU-GEMM, BFU-e, CFU-GM). Type of assay: cell-based, human. To be noted: for Pro-hematopoiesis in vitro Enhancement: relative increase of hematopoietic colony cell number, hCG preparations 200 IU/ml, subunits and peptides 100 μg/ml. On the procedure: The effect of hCG preparations and peptides was assayed on hematopoietic progenitor cells in vitro: Hematopoietic progenitor cells (2×10^5 cell/ml) were isolated from normal bone marrow and cord blood and seeded in methylcellulose. […] The hCG preparations were administered at 200 IU/ml and the β- and α-subunits and peptides were administered at 100 μg/ml. The native commercial preparation of hCG (APL™, Wyeth Ayerst) was pre-tested for anti-HIV and anti-KS activities. Aggregates containing more than 50 cells after 10 days of culture were counted as colonies.

For “6. 45-57::109-119: β-hCG 45-57 linked at the C-terminus to the N-terminus of 109-119 (SEQ ID NO:30) (LQGVLPALPQVVCTCDDPRFQDSS)”, in the assay with KS Y-1 and KS-SLK cells (KS Y-1 and KS SLK), the “inhibition of KS cell growth in clonogenic assays (in words)” value is reported as “strongest anti-tumor effects”. Further, in the assay on KS Y-1 and KS-SLK cells, the KS in vitro result was “++ (“++” represents greater than 40% effect)”. Moreover, in assay [1], the KS in vivo result is “++ (“++” represents greater than 40% effect)” and the “effect on KS tumors in mice (in words)” value is “significant anti-KS activity”. The “inhibition of HIV RNA and protein expression” value in assay [2] was “++ (“++” represents greater than 40% effect)”. Besides, the colony formation entry in the assay on lung cancer cells is listed as “inhibited colony formation”. In addition, in the assay on HIV-1, the “inhibition of HIV-1 infection/replication in vitro (in words)” value is on record as “inhibit HIV-1 replication in vitro” and the “HIV in vitro Inhibition” value is on record as “++ (“++” represents greater than 40% effect)”. Moreover, in assay [3], the “promotion of hematopoiesis (in words)” value is “directly promoted” and the “Pro-hematopoiesis in vitro Enhancement” value is “++ (“++” represents greater than 40% effect)”.
Turning to “8. 41-54: β-hCG amino acids 41-54 (SEQ ID NO:3) (MTRVLQGVLPALPQ)”, the KS in vitro result in the assay on KS Y-1 and KS-SLK cells is given as “− (“−” represents less than 10% effect)”. In addition, the KS in vivo result in assay [1] is listed as “− (“−” represents less than 10% effect)”. Further, the “inhibition of HIV RNA and protein expression” value in assay [2] is “− (“−” represents less than 10% effect)”. In the assay with HIV-1, the “HIV in vitro Inhibition” value was “− (“−” represents less than 10% effect)”. In assay [3], the “Pro-hematopoiesis in vitro Enhancement” value is recorded as “− (“−” represents less than 10% effect)”.
Regarding “13. 6-16: β-hCG amino acids 6-16 (RPRCRPINATL; UniProt P0DN86 26-36, looked up, fragment)”, the KS in vitro result with KS Y-1 and KS-SLK cells is “− (“−” represents less than 10% effect)”. For the same substance, the KS in vivo result in assay [1] was “− (“−” represents less than 10% effect)”. For the same substance, the “inhibition of HIV RNA and protein expression” value in assay [2] was “− (“−” represents less than 10% effect)”. The “HIV in vitro Inhibition” value with HIV-1 is “− (“−” represents less than 10% effect)”. Moreover, the “Pro-hematopoiesis in vitro Enhancement” value in assay [3] is “− (“−” represents less than 10% effect)”.
As for “30. 37-55: β-hCG amino acids 37-55 as printed; probably 47-55 (YCPTMTRVLQGVLPALPQV; UniProt P0DN86 57-75, looked up, fragment)”, the KS in vitro entry with KS Y-1 and KS-SLK cells is on record as “+ (“+” represents greater than 15% effect)”. The KS in vivo entry in assay [1] is “+ (“+” represents greater than 15% effect)”. Moreover, the “inhibition of HIV RNA and protein expression” value in assay [2] is “+ (“+” represents greater than 15% effect)”. In addition, in the assay with HIV-1, the “HIV in vitro Inhibition” value was “+ (“+” represents greater than 15% effect)”. Moreover, the “Pro-hematopoiesis in vitro Enhancement” value in assay [3] is recorded as “+ (“+” represents greater than 15% effect)”.
In the case of “32. 48-56: β-hCG amino acids 48-56 (SEQ ID NO:35) (VLPALPQVV)”, in the assay with KS Y-1 and KS-SLK cells, the KS in vitro entry is given as “+ (“+” represents greater than 15% effect)”. Further, in assay [1], the KS in vivo result is “+ (“+” represents greater than 15% effect)” and the “effect on KS tumors in mice (in words)” value is reported as “some anti-KS activity”. Also, in assay [2], the “inhibition of HIV RNA and protein expression” value was “+ (“+” represents greater than 15% effect)”; the “HIV-1 gene / protein expression in transgenic mice (in words)” value is “elicited inhibition”. For the same substance, in the assay with HIV-1, the “inhibition of HIV-1 infection/replication in vitro (in words)” value is given as “inhibited HIV-1 replication” and the “HIV in vitro Inhibition” value is “+ (“+” represents greater than 15% effect)”. For the same substance, in assay [3], the “promotion of hematopoiesis (in words)” value is reported as “pro-hematopoietic effect” and the “Pro-hematopoiesis in vitro Enhancement” value was “+ (“+” represents greater than 15% effect)”.
As to “47-55: β-hCG amino acids 47-55 (SEQ ID NO:20) (GVLPALPQV)”, the “effect on KS tumors in mice (in words)” value in assay [1] is reported as “some anti-KS activity”. The “HIV-1 gene / protein expression in transgenic mice (in words)” value in assay [2] is “elicited inhibition”. In addition, the “inhibition of HIV-1 infection/replication in vitro (in words)” value in the assay on HIV-1 was “inhibited HIV-1 replication”. Also, the “promotion of hematopoiesis (in words)” value in assay [3] is “pro-hematopoietic effect”.
